The numbers were not newly measured in patent publication US20140227371A1, “EDIBLE COMPOSITION” (priority 2011, published 2014), which cites them from elsewhere.

Series [1] has as its system rat liver. Conditions: through activation of the β-oxidation system, Tsuduki et al. 2009.
For series [2] the following is noted: alcohol-induced steatosis and steatohepatitis models; Kang et al. 2005.

Structures are written as SMILES.

Consider `OC[C@H]1NC[C@H](O)[C@@H](O)[C@@H]1O` [1-Deoxynojirimycin], for which the Lipid accumulation entry in series [1] was “suppress lipid accumulation”.
As to `[Zn]` [Zinc], the Hepatoprotective effects entry in series [2] was “hepatoprotective effects”.
